Reference: ChEMBL document CHEMBL3507680, “University of Dundee, Gates Library screen for HepG2 cell viability”

Test: Human HepG2 cell viability assay in 384 well format
Assay type: toxicity, cell-based
Parameters: dose 125 nL, time 70.5 hour; cytotoxicity at 70.5 h: concentration not given beside the values
Conditions: HepG2 cells, read-out: Inhibition

SMILES	cytotoxicity at 70.5 h
Cn1ccnc1CNC(=O)CC1CCCCO1 (stereo not drawn)	-6.84%
Cc1cccc(CN2C(=O)C[C@H]3[C@@H]2CCN3Cc2nccs2)n1	-22.3%
O=C(C1CC(=O)N(c2n[nH]c3cc(Br)ccc23)C1)N1CCSCC1 (stereo not drawn)	-9.09%
CNc1[nH]nc(N)c1C(=O)Nc1ccccc1	2.68%
Cc1nc(NCc2ccc(C)o2)cc(C(=O)N2CCOCC2)n1	-9.84%
CC(=O)N1C[C@H](NS(=O)(=O)N2CCCC2)[C@@H](c2ccc(C)o2)C1	-7.2%
CC(C)c1cccc(NC(=O)N2CC(N(C)C)C2)c1	-0.462%
CCn1c(CNC(=O)c2ccc(N(C)C)nc2)nc2ccccc21	-8.62%
COC(=O)c1ccc2ccn(CC3CCCN(C)C3)c(=O)c2c1 (stereo not drawn)	25.4%
O=C(CCn1cncn1)NCC(c1ccco1)N1CCCC1 (stereo not drawn)	-4.48%
CN(CCCN1CCOCC1)[C@@H]1c2ccccc2C2(CCNCC2)[C@H]1O	-7.93%
Cn1cccc1C(=O)N1CCC2(CC1)COC(COc1ccccn1)C2 (stereo not drawn)	-6.63%
CC(C)n1cc2cc(NC(=O)CCS(C)(=O)=O)ccc2n1	23.6%
OCCC1CCN(c2ccnc3ccsc23)C1 (stereo not drawn)	-3.95%
CN1C(=O)[C@H]2CC[C@@H]1CN(C(=O)c1nnc3n1CCCCC3)C2	-6.73%
CCS(=O)(=O)CCN1CCC(N(C)Cc2ncc(C)o2)C1 (stereo not drawn)	0.306%
CCCc1nc(CN2CCCN(Cc3nccn3C)CC2)no1	-14.9%
c1ncc2c(n1)CN(Cc1nc(-c3ccc4c(c3)OCO4)no1)CC2	-4.3%
CC(C)CN1CC[C@@H]2[C@@H]1CCN2C(=O)N1CCCC1	-3.86%
Cc1cc2c(=O)n3c(nc2s1)CCN(Cc1cnc(C)n1C)CC3	-4.27%
CC(=O)NC1CCN(c2c(C#N)cnc3c(C)cc(F)cc23)CC1	0.242%
Cc1csc(C2CCCCN2C(=O)c2cc(C3CC3)[nH]n2)n1 (stereo not drawn)	-2.5%
CNC(=O)c1nc(COc2c(C)occc2=O)no1	-14.3%

SMILES	cytotoxicity at 70.5 h
Cc1cc(N2CCCC2(C)c2nc(C)cc(C(=O)N(C)C)n2)ncn1 (stereo not drawn)	-2.78%
O=C(c1ccc(-c2ccccc2)[nH]c1=O)N1CCCn2ncnc21	-9.78%
Cc1cc(N2CCC(N(C)C(=O)Nc3ccccc3)CC2)nc(C)n1	2.35%
CN1CC[C@H]2OCC[C@@]2(C(=O)NCCc2ccccn2)C1	21.6%
O=C(NC1CCC1)[C@@H]1C[C@@H]2CCN(Cc3ccncc3)C[C@H]2O1	-4.89%
CC(C)N(Cc1nccn1C)C(=O)c1cc(Cl)c[nH]c1=O	-6.81%
O=C1Nc2ccccc2C12CCN(Cc1ccccn1)CC2	0.291%
Cc1nn(C)c(N(C)C)c1CNCc1ccccc1CN(C)C	18.8%
COc1ccc(CN(Cc2c[nH]cn2)CC2CCCO2)c(OC)c1 (stereo not drawn)	-3.26%
CCCc1nn(C2CCN(C3CC3)C2=O)c(=O)o1 (stereo not drawn)	-5.48%
O=C(c1cnccn1)N1CCN2C[C@H](OCc3ccccn3)C[C@H]2C1	-10.5%
COC(=O)N1CCCC(NC(=O)NCc2nc(C)cs2)C1 (stereo not drawn)	-8.72%
CCN(CC(=O)NCCc1nc(C)no1)Cc1ccc(Cl)cc1	-2.02%
O=C1CCC(C(=O)N2CCOC(Cc3cccc4ccccc34)C2)=NN1 (stereo not drawn)	18.7%
O=C(C1CCOCC1)N1CCO[C@H]2[C@@H](OCc3ccncc3)CC[C@@H]21	-4.02%
COCc1nc(NC(C)Cc2cc(C)n[nH]2)c2cnn(C)c2n1 (stereo not drawn)	-0.0562%
CS(=O)(=O)N1CC[C@H]2OCC[C@@]2(C(=O)NCCc2ccccn2)C1	-7.11%
Cc1occc(=O)c1OCC(=O)N1CCc2ccccc2C1	7.13%
COCCNc1nc(C)nc2c1CCN(C[C@H]1CC[C@@H](N)CC1)CC2	44.2%
O=C(CNC1CCc2ncnn2C1)N(Cc1cccs1)C1CC1 (stereo not drawn)	0.341%
CC(=O)c1cnc(N(C)Cc2cc(C)cc(C)n2)nc1C	-8.24%
CSCCC(C)(O)CNC(=O)c1ccsc1 (stereo not drawn)	0.568%
Cn1c(NCC(O)c2ccc(Cl)cc2)c(C#N)c(=O)n(C)c1=O (stereo not drawn)	-4.06%

SMILES	cytotoxicity at 70.5 h
CCOCC1CN(c2ccncn2)Cc2cnn(CC)c21 (stereo not drawn)	-8.6%
CNc1cc(-c2ccncc2)ncn1	23.1%
CC(OCC1CC1)C(=O)Nc1ncn(CC(=O)N2CCCCCC2)n1 (stereo not drawn)	10.7%
CCCn1ncc2c(C(=O)Nc3n[nH]c(SC)n3)cc(C3CC3)nc21	5.71%
CC(NC(=O)N(C)CCCOc1ccccc1)c1nncn1C (stereo not drawn)	-5.85%
Cc1nc(C2CCCN2Cc2nc(C)c(C)o2)no1 (stereo not drawn)	-2.71%
CN(C)c1ncc(-c2cc(C(=O)NC(C)(C)CO)n(CC3CC3)c2)cn1	-12.5%
CCn1nc(C)cc1C(=O)NCc1nc(C)no1	-6.53%
c1cc(-c2cnccn2)cc(-c2ccn(CCN3CCCC3)n2)c1	12.2%
Cc1cccc(Nc2cc(C)nc(C3CCN(C(C)C)C3)n2)n1 (stereo not drawn)	15.7%
C/C(NC(=O)c1cccs1)=C1\C(=O)C[C@@H]2[C@H]1C2(C)C	-10%
CCc1nc(C)c(-c2nccn2CC2CC(=O)N(CC)C2)[nH]1 (stereo not drawn)	1.63%
O=C(CN1CCOC(Cn2cccn2)C1)Nc1nccs1 (stereo not drawn)	-16.1%
C[C@@H]1CN(C(=O)C2(Cn3cccn3)CC2)C[C@@]1(O)C1CCC1	-0.77%
CS(=O)(=O)N1CCc2ccc(=O)n(CC3CC3)c2CC1	-7.85%
Cc1cccc(C2CCCN2C(=O)CCS(C)(=O)=O)c1C (stereo not drawn)	18.6%
CC(C)c1nnc(CNc2nc(-c3cccnc3)nc3c2CCC3)n1C	-1.97%
CCc1nnc(SCc2cc(=O)n3c4c(sc3n2)CCCC4)[nH]1	-1.82%
CCOc1ccc(Oc2cc(N)ccn2)cc1	-4.03%
Cc1cccc(CC(=O)N2CCN(c3nccn3C)CC2)c1	-1.55%
COCCN1CCC(NCc2cccc(C)c2)C1 (stereo not drawn)	-12.6%
Cc1ccc(C(=O)N2CCc3c(CNc4ncccn4)cncc3C2)o1	-10.9%
COCC1CC2(CCN(c3cccc(C)n3)CC2)CN1C(C)C (stereo not drawn)	-8.05%

SMILES	cytotoxicity at 70.5 h
COCCOCC(=O)NC1CCN(c2ccccn2)CC1	16.4%
Cc1ccc(CNCc2nnc3n2CC(C(F)(F)F)CC3)o1 (stereo not drawn)	2.88%
Cc1cc(NC(=O)CN2CCCC(Cn3nc(C)nc3C)C2)n(C)n1 (stereo not drawn)	-2.11%
CCOc1ccc(NC(=O)NC2CCc3nc(C)nn3C2)cc1Cl (stereo not drawn)	-2.45%
Oc1ccc(N2CCC(Cc3ccccc3)CC2)nn1	-4.56%
Cc1ccc(N2CCCC(c3[nH]ncc3-c3ccccc3)C2)nn1 (stereo not drawn)	-8.56%
CC(C)NC(=O)c1cc(-c2ccc(S(C)(=O)=O)cc2)nc2c1cnn2C	-13.7%
COCCC(=O)NCCCOC1CCCc2ccccc21 (stereo not drawn)	1.55%
Cn1c(C(=O)NC(Cc2ccsc2)c2cccnc2)cc(=O)n(C)c1=O (stereo not drawn)	-0.464%
COc1cccc(CN2CCC3(CC2)CCN(c2ncc(F)cn2)C3)c1	0.909%
COC(=O)c1cccc2nc([C@H]3CCN(Cc4ccccc4)C3)oc12	-11.8%
COc1ccc(C(=O)N2CCCC(n3nc(C)nc3C)C2)c(OC)c1 (stereo not drawn)	21.8%
Cc1ccc(-c2ccc(C(=O)NCCS(N)(=O)=O)c(F)c2)cc1	-3.69%
Cc1nc2cc(O)nn2c(C)c1CCC(=O)NCCc1nccn1C	-10.9%
CCN(Cc1ccc2c(c1)OCCO2)C(=O)NCc1csc(C)n1	-9.9%
COc1cc(C(=O)N(CCC#N)Cc2ccccn2)cc(OC)c1C	-6.63%
Cn1ccnc1-c1cccc(NC(=O)NCCCO)c1	1.83%
CC1c2ccsc2CCN1Cc1cc2c(cc1O)OCO2 (stereo not drawn)	-5.73%
Cc1cc(CN(C)C(=O)CN2CCCCCC2=O)no1	-10.3%
CCN1C(=O)C(c2ccccc2)CC12CCN(S(C)(=O)=O)CC2 (stereo not drawn)	-9.88%
CNc1cccc(C2CCCN(C(=O)c3cscn3)C2)n1 (stereo not drawn)	-8.52%
N#Cc1c(Cl)nsc1NCC1(c2ccccc2)CCC1	17.1%
CCn1cc(C(=O)NCC(OC)c2cccc(Cl)c2)cn1 (stereo not drawn)	-2.35%

SMILES	cytotoxicity at 70.5 h
Cc1noc(C)c1S(=O)(=O)N1CCC(Oc2ccccn2)CC1	10%
O=C1CO[C@H]2CN(S(=O)(=O)c3ccccc3)C[C@H]2N1CC1CCCCC1	-11.1%
CC(C)(C)c1coc([C@@H]2COCCN2CC2CC2)n1	-0.839%
C[C@@H]1CN(C(=O)c2ccncc2)CC[C@@]1(O)C1CCOCC1	-1.23%
CN(c1nccc(-c2cnc3sc(Cl)cn3c2=O)n1)C1CCCCC1	-3.38%
Cc1sc2c(C3CCCN(C)C3)nc(C)n2c1C (stereo not drawn)	24.3%
CC(CC(=O)NS(=O)(=O)c1ccc2c(c1)OCCO2)c1ccc(F)cc1 (stereo not drawn)	-1.76%
COc1ccc(Br)cc1SCCS(C)(=O)=O	-4.19%
COC(=O)COc1ccc(-c2noc(C3CCCO3)n2)cc1 (stereo not drawn)	24.5%
CC(COc1ccccc1)NCc1nncn1C1CCCCC1 (stereo not drawn)	7.54%
CC(C)Cc1cc(CNC(=O)C2CCCN(C(=O)N(C)C)C2)no1 (stereo not drawn)	-2.31%
CN(C)c1ncc(-c2c(-c3ccccc3)ncn2C(CO)C(=O)O)cn1 (stereo not drawn)	-10.8%
COc1ccc(/C=C/CN2C[C@H]3CC[C@@H]2CN(S(=O)(=O)N(C)C)C3)cc1	-5.26%
Cc1cc(C)c(CNC(=O)N2CCOC(c3ccccc3)C2)c(=O)[nH]1 (stereo not drawn)	-8.25%
CCc1nnc2n1CCN(C(=O)Cc1nc(-c3ccco3)oc1C)C2	10.8%
Cn1c(CN2CCCC(Cn3cncn3)C2)nc2ccccc21 (stereo not drawn)	28.9%
CN1CCN(c2ccnc3c(F)cc(Br)cc23)CC1	1.8%
N#Cc1ccc(SCCCO)c(F)c1	-5.69%
COC(=O)[C@H](CCSC)NC(=O)Cn1ccc2c(Cl)cccc21	-17.2%
CCc1cc(N[C@@H](CC(C)C)C(N)=O)n2nc(C)c(C)c2n1	-8.65%
O=C(c1ccsc1)N1CCN2C[C@H](OCc3ccccn3)C[C@H]2C1	-10.1%
